Earlier results in US20150018665A1, “MOLECULAR AND CELLULAR IMAGING USING ENGINEERED HEMODYNAMIC RESPONSES” (Massachusetts Institute of Technology, priority 2013, published 2015).

Biological target: nNOS (Homo sapiens, UniProt P29475)
Details: blockade of nNOS

Chain of nNOS (P29475 whole entry, species assumed): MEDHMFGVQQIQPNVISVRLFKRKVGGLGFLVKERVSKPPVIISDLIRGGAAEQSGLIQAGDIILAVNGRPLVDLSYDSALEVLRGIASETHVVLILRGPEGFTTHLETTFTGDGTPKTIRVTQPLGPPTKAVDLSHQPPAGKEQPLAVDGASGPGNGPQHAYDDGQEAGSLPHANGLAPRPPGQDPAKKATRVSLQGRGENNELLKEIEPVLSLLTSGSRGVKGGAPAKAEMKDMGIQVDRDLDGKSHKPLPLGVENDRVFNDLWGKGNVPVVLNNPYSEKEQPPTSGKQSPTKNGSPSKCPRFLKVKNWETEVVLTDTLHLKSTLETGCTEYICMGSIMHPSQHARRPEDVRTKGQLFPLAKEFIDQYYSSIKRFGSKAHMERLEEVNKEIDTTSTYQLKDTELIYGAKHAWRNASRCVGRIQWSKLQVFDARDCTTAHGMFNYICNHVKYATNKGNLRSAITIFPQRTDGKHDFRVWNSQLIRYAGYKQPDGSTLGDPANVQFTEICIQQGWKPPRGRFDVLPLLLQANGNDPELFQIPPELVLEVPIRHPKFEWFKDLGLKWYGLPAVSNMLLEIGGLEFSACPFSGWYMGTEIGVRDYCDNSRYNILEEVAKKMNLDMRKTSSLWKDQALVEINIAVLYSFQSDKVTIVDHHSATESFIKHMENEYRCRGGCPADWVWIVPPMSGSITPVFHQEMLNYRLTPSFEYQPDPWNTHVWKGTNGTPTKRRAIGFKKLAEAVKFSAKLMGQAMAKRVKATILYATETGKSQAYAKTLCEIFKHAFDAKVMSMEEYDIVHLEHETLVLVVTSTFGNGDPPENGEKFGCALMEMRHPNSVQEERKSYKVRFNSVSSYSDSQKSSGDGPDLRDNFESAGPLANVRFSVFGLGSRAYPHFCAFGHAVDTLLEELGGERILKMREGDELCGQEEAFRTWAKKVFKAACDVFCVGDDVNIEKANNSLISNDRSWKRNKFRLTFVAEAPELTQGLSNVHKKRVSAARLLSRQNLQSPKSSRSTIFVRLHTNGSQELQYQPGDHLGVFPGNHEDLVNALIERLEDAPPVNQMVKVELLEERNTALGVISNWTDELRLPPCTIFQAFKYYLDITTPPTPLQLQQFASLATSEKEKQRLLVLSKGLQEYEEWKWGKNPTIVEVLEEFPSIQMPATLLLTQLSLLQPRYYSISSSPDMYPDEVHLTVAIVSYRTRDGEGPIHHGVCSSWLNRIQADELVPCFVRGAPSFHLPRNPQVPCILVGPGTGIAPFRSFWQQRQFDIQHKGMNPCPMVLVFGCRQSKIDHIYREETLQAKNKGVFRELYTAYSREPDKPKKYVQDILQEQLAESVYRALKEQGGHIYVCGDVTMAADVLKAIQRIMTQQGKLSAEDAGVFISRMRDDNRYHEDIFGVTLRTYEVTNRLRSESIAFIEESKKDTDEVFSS

NC(=NCCC[C@H](N)C(=O)O)N[N+](=O)[O-] [L-nitroarginine]
effect on fMRI-detectable responses to stimulation: abolishes or sharply reduces
